Experimental data taken from US20120177690A1, “USE OF RAPAMYCIN DERIVATIVES IN VASCULOPATHIES AND XENOTRANSPLANTATION” (Novartis AG, priority 1996, published 2012).

What was measured:
kidney allograft = experiment: Chronic allograft rejection, rat kidney allograft model (DA to Lewis); assay type: in vivo
Description: The kidney of a male DA (RTI^a) rat is orthotopically transplanted into a male Lewis (RTI^1) recipient. In total 24 animals are transplanted. All animals are treated with cyclosporine A at 7.5 mg/kg/day per as for 14 days starting on the day of transplantation, to prevent acute cellular rejection. Contralateral nephrectomy is not performed. Each experimental group treated with a distinct dose of a compound of formula I or placebo comprises six animals.
Starting at day 53-64 after transplantation, the recipient animals are treated per os for another 69-72 days with a compound of formula I or receive placebo. At 14 days after transplantation animals are subjected to graft assessment by magnetic resonance imaging (MRI) with perfusion measurement of the kidneys (with comparison of the grafted kidney and the own contralateral kidney). This is repeated at days 53-64 after transplantation and at the end of the experiment. The animals are then autopsied. Rejection parameters such as MRI score, relative perfusion rate of the grafted kidney and histologic score of the kidney allograft for cellular rejection and vessel changes are determined and statistically analyzed. Administration of a compound of formula I, e.g. Compound A, at a dose of 0.5 to 2.5 mg/kg in this rat kidney allograft model yields a reduction in all above mentioned rejection parameters.

aorta allograft = experiment: Aorta transplantation in the rat (DA to Lewis); assay type: in vivo; settings: per os in microemulsion, 2.5 mg/kg/day for 7 weeks and 0.63-5.0 mg/kg/day for 11 weeks
Description: These include infiltration into the adventitia of mononuclear cells (lymphocytes, macrophages, some plasma cells), and thickening of the intima.
Donor aorta between the branch of the renal artery and the start of the caudal mesenteric aorta, about 1 cm in length, is harvested from a male DA (RTI^a) rat and transplanted orthotopically in a male Lewis (RTI^1) rat. Weekly after transplantation, the body weight is recorded. At autopsy, the graft with part of the aorta of the recipient just above and below the transplant is removed. It is perfused ex vivo with phosphate-buffered saline supplemented with 2% paraformaldehyde and 2.5% glutaraldehyde for about 2 minutes, then for 24 hours fixed by immersion fixation in the same solution, and thereafter fixed in 4% buffered formalin. Pieces of the graft are embedded in paraffin, in such a way that both a transversal section and a longitudinal section is made of the grafted aorta and the recipient's own aorta.
Sections of 4 μm thickness are stained by hematoxylin-eosin, elastica-von-Gieson and periodic-acid-Schiff. Apart from conventional light microscopy, images are recorded by confocal laser scanning microscopy. From each section, four areas are scanned, and from each area the thickness of the intima and intima+media is measured at five locations. […]

hamster heart xenograft = experiment: In vivo heart xenotransplantation (hamster-to-rat)
Description: The hamster-into-rat xenograft combination is a so-called difficult concordant combination. […] This is visualized in histology by destruction of blood vessels, exsudation and extravasation of erythrocytes, and influx by polymorpho- nuclear granulocytes: often there are signs of hemorrhage and thrombosis. […] This is visualized in histology by influx of mononuclear cells, including lymphocytes, lymphoblastoid cells, and macrophages, and destruction of the myocyte parenchyma. The inhibition of cellular rejection requires more immuno-suppression than that of allografts. Congenitally athymic (mu/mu) rats lack a competent (thymus-dependent) cellular immune system and generally are unable to reject allografts.
The graft is monitored daily by palpation of the abdomen. Rejection is concluded in case of cessation of heart beat. Animals are weighed weekly. In the present series of experiments, the endpoint is set to 28 days. Animals are subjected to autopsy; apart from the graft, weight and histology is assessed for thymus, spleen, liver, seminal vesicles and testes. Blood is taken and processed to serum for the determination of cytolytic anti-hamster erythrocyte antibody and hemolytic complement activity.

[1] = 4-week toxicity study in monkeys; assay type: in vivo
Description: (§1) Compounds of formula I are well tolerated at dosages required for use in accordance with the present invention. For example, the NTEL for Compound A in a 4-week toxicity study is 0.5 mg/kg/day in rats and 1.5 mg/kg/day in monkeys.

carotid artery = experiment: Angioplasty, balloon catheter injury of the left common carotid artery; assay type: in vivo, RoRo rats; settings: for inhibition of neointima formation: day -3 to day +14
Description: Studies on angioplasty are done in the model of balloon catheter injury: Balloon catheterization is performed on day 0, essentially as described by Powell et al. (1989). Under Isofluorane anaesthesia, a Fogarty 2 F catheter is introduced into the left common carotid artery via the external carotid and inflated (distension≈10 μl H2O). The inflated balloon is withdrawn along the length of the common carotid three times, the latter two times whilst twisting gently to obtain a uniform de-endothelialization. The cathethcr is then removed, a ligature placed around the external carotid to prevent bleeding and the animals allowed to recover.
2 groups of 12 RoRo rats (400 g. approximately 24 weeks old) are used for the study: one control group and one group receiving the compound of formula I. The rats are fully randomized during all handling, experimental procedures and analysis.
The compound to be tested is administered p.o. (gavage) starting 3 days before balloon injury (day −3) until the end of the study, 14 days after balloon injury (day +14). Rats are kept in individual cages and allowed food and water ad libidum.
The rats are then anaesthetized with Isofluorane, a perfusion catheter inserted through the left ventricle and secured in the aortic arch, and an aspiration cannula inserted into the right ventricle. […] The perfusion pressure is 150 mmHg at the tip of the cannula (≈100 mmHg in the carotid artery), as determined in a preliminary experiment by introducing a cannula attached to a pressure transducer into the external carotid). […]
Sections 1-2 μm thick are cut from the middle section of each carotid with a hard metal knife on a rotary microtome and stained for 2 min with Giemsa stain. About 5 sections from each carotid are thus prepared and the cross-sectional area of the media, neointima and the lumen morphometrically evaluated by means of an image analysis system (MCID, Toronto, Canada).

[2] = 4-week toxicity study in rats; assay type: in vivo
Description: as §1

[3] = 2.5 mg/kg/day per os, vs placebo group

Question: With `CO[C@H]1C[C@@H]2CC[C@@H](C)[C@@](O)(O2)C(=O)C(=O)N2CCCC[C@H]2C(=O)O[C@H]([C@H](C)C[C@@H]2CC[C@@H](OCCO)[C@H](OC)C2)CC(=O)[C@H](C)/C=C(\C)[C@@H](O)[C@@H](OC)C(=O)[C@H](C)C[C@H](C)/C=C/C=C/C=C/1C` [Compound A, 40-O-(2-hydroxy)ethyl-rapamycin] as the compound, how does the “MRI score of rejection” value (kidney allograft; [3]) read?
Answer: Its value is “significantly lower”.

Question: And the “histologic score for cellular rejection and vessel changes” value (kidney allograft; [3])?
Answer: Its value is “significantly lower”.

Question: And the “reduction in perfusion rate assessed by MRI” value (kidney allograft; [3])?
Answer: Its value is “significantly lower”.

Question: What about the “rejection parameters (MRI score, relative perfusion rate of the grafted kidney, histologic score for cellular rejection and vessel changes)” value (kidney allograft; dose of 0.5 to 2.5 mg/kg per os, from day 53-64 after transplantation for 69-72 days) of the same compound?
Answer: The value was “reduction”.

Question: What about the graft infiltration (aorta allograft) of the same compound?
Answer: Its graft infiltration is “significantly inhibit”.

Question: What about the neointima formation (aorta allograft) of the same compound?
Answer: Its neointima formation is “significantly inhibit”.

Question: And the graft survival (hamster heart xenograft; athymic recipients)?
Answer: Its graft survival is “prolonged graft survival”.

Question: And the graft survival (hamster heart xenograft; euthymic recipients)?
Answer: The graft survival was “prolonged graft survival”.

Question: What about the NTEL [1] of the same compound?
Answer: Its NTEL is 1.5 mg/kg/day.

Question: What about the “inhibition of neointima formation” value (carotid artery; 0.5 mg/kg p.o. daily) of the same compound?
Answer: The value was 50%.

Question: And the “inhibition of neointima formation” value (carotid artery; 2.5 mg/kg p.o. daily)?
Answer: The value was 75%.

Question: And the intimal thickening (carotid artery; p.o. day -3 to day +14, compared to the control animals)?
Answer: Its intimal thickening is “significantly less”.

Question: And the NTEL [2]?
Answer: The NTEL was 0.5 mg/kg/day.
